Data taken from patent US20170056351A1, “COMPOSITION FOR INDUCING TUMOR IMMUNITY” (UNIVERSITY OF OCCUPATIONAL AND ENVIRONMENTAL HEALTH, JAPAN, priority 2014, published 2017).

Legend:
U251 cells [1] = experiment: Cellular ROS levels after ionizing irradiation (DCFD, flow cytometry), U251; type: cell-based, human; details: for relative MFI of DCF fluorescence 12 hours after ionizing irradiation, timing study: 10 Gy
Method: Intracellular ROS production was evaluated using the oxidant-sensitive fluorescence probe DCFD and flow cytometry (Yamamori T, Yasui H, Yamazumi M, et al: Ionizing radiation induces mitochondrial reactive oxygen species production accompanied by upregulation of mitochondrial electron transport chain function and mitochondrial content under control of the cell cycle checkpoint. Free Radic Biol Med 53: 260-270, 2012.). The cells were seeded on a 100-mm culture dish, and using an X-ray irradiation apparatus (MBR-1520R; Hitachi, Tokyo, Japan) (0.67 Gy/min), the cells were then irradiated with a radiation of 10 Gy in a dark room. During the ionizing irradiation, the culture dish was maintained at a room temperature in a dark container. In the case of a 5-ALA and ionizing irradiation group (RT,12 h+ALA), the cells were treated with 1 mM 5-ALA for 4 hours, then, immediately after the treatment, the cells were irradiated with ionizing radiation, and were then incubated together with 10 μM DCFD at 37° C. for 15 minutes, followed by washing with PBS twice. Thereafter, as described above, the cells were analyzed using a flow cytometer (excitation: 488 nm; radiation: 525/50 nm band-pass filter). Control cells were not exposed to ionizing radiation or 5-ALA. In a 5-ALA group, the cells were treated with 1 mM 5-ALA for 4 hours, but were not exposed to ionizing radiation. The control cells and the cells of the 5-ALA group were treated with DCFD in the same manner as described above. In order to prevent the photoactivation of 5-ALA-induced PpIX and DCFD, all procedures were carried out in a dark room. The flow cytometric data were analyzed using FlowJo (Tree Star Inc., Ashland, Oreg., USA). The MFI of the DCF fluorescence in the cells, with respect to that in control cells, was calculated for each cell line.
The cells were seeded on a 100-mm culture dish, and were then exposed to an ionizing radiation of 10 Gy. The incubation time (4 h) of 1 mM 5-ALA was the same among individual groups, and three types of 5-ALA treatment times were initiated: i) 5-ALA treatment immediately before ionizing irradiation [RT+ALA (pre) group]; ii) 5-ALA treatment immediately after ionizing irradiation [RT+ALA (4 h) group]; and iii) 5-ALA treatment 8 hours after ionizing irradiation [RT+ALA (12 h) group]. In each group, twelve hours after the ionizing irradiation, the cells were incubated together with 10 μM DCFD at 37° C. for 15 minutes, and were then washed with PBS twice. Immediately after the washing, as described above, DCF fluorescence was analyzed using a flow cytometer. Control cells were not treated with ionizing radiation or 5-ALA. In a group involving only ionizing irradiation (RT), the cells were exposed to ionizing radiation, without performing 5-ALA treatments, and were then treated with DCFD twelve hours after the exposure to the ionizing radiation in the same manner as described above. All procedures were carried out in a dark room. The flow cytometric data were analyzed using FlowJo software. The MFI of the DCF fluorescence in the cells, with respect to that in control cells, was calculated for each cell line.

9L cells = experiment: Intracellular localization of ROS 12 hours after ionizing radiation (DCFD, confocal laser scanning microscope), 9L; type: cell-based, rat; details: pre-treatment with 1 mM 5-ALA 4 hours before 10 Gy, 12 hours after irradiation, vs no 5-ALA
Method: (§1) Intracellular ROS production was detected by our method using DCFD and a confocal laser scanning microscope (LMS5 Pascal; Carl Zeiss, Jena, Germany) (Yamamoto J, Ogura S, Tanaka T, et al: Radiosensitizing effect of 5-aminolevulinic acid-induced protoporphyrin IX in glioma cells in vitro. Oncol Rep 27: 1748-1752, 2012.). Briefly, the cells were seeded in a fresh medium containing 1 mM 5-ALA in a 35-mm glass-bottom culture dish (Asahi Techno Glass, Tokyo, Japan), and were then incubated at 37° C. for 4 hours in a dark room. Thereafter, the cells were washed with PBS, and were then exposed to an ionizing radiation of 10 Gy. Twelve hours after the ionizing irradiation, the cells were washed with PBS twice, and were then incubated together with 10 μM DCFD for 15 minutes. Thereafter, the cells were washed with PBS twice, and immediately after the washing, the resulting cells were observed. DCFD fluorescence (excitation: 488 nm; radiation: 505-530 nm band-pass filter) was imaged on a confocal laser scanning microscope. All procedures were carried out in a dark room.

U251 cells [2] = experiment: Intracellular localization of ROS 12 hours after ionizing radiation (DCFD, confocal laser scanning microscope), U251; type: cell-based, human; details: pre-treatment with 1 mM 5-ALA 4 hours before 10 Gy, 12 hours after irradiation, vs no 5-ALA
Method: as §1

[3] = living body; cited from earlier work

Compound: NCC(=O)CCC(=O)O [ALA, 5-aminolevulinic acid]
- relative MFI of DCF fluorescence (cellular ROS) (U251 cells [1]; 1 mM 5-ALA 4 hours, without ionizing irradiation, relative to control cells, average±SE): 0.87±0.06
- relative MFI of DCF fluorescence 12 hours after ionizing irradiation, timing study (U251 cells [1]; 5-ALA treatment 8 hours after ionizing irradiation, RT+ALA (12 h) group): 1.38±0.05
- relative MFI of DCF fluorescence 12 hours after ionizing irradiation, timing study (U251 cells [1]; 5-ALA treatment immediately after ionizing irradiation, RT+ALA (4 h) group): 1.43±0.02
- relative MFI of DCF fluorescence 12 hours after ionizing irradiation, timing study (U251 cells [1]; 5-ALA treatment immediately before ionizing irradiation, RT+ALA (pre) group): 1.44±0.02
- relative MFI of DCF fluorescence (cellular ROS) (U251 cells [1]; 12 hours after 10 Gy ionizing irradiation with 5-ALA pre-treatment (1 mM, 4 hours), p=0.031 vs RT 12 h): 1.51±0.10
- DCF fluorescence in the cytoplasm (confocal) (9L cells): apparently increased
- DCF fluorescence in the cytoplasm (confocal) (U251 cells [2]): apparently increased
- time until ALA is metabolized and discharged from the body [3]: ≤ 48 h
